The record followed here is patent US7208517B1, “Endothelin antagonists” (Abbott Labortories, priority 1994, dated 2007).

The structures appear in SMILES notation.

The target of this assay is T1, ETA Receptor (Rattus norvegicus, UniProt P26684).
T1 construct: endogenous in cells; host or cells: MMQ rat pituitary cells (membranes)
T1 sequence (P26684 21-426): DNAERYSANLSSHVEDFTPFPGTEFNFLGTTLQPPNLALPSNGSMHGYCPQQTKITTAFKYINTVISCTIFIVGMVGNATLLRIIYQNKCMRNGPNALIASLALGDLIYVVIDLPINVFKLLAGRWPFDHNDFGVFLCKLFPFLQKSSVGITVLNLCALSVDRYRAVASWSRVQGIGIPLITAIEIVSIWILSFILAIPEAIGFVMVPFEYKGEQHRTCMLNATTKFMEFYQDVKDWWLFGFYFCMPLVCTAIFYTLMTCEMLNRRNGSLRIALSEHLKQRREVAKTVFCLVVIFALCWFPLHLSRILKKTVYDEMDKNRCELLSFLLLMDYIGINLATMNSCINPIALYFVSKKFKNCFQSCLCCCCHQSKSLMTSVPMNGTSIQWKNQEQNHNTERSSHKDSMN
Briefly: [125I]ET-1 binding to membranes from MMQ cells (ETA receptor binding assay, Table 4). The settings on record: test compound at 1 μM; 0.1 nM [125I]ET-1, MMQ cell membranes, 4 hours at 25° C.
Consider `CCCCN(CCCC)C(=O)CN1CC(c2ccc3c(c2)OCO3)C(C(=O)O)C1c1ccoc1` (stereo not drawn) [Example 156, trans,trans-1-(N. N-Di(n-butyl)aminocarbonylmethyl)-2-(3-furyl)-4-(1,3-benzodioxol-5-yl)pyrrolidine-3-carboxylic acid], for which the “% Inhibition of ETA at 1 μM” value is on record as 92.6%.

As to `CCCCCCN(C)C(=O)CN1CC(c2ccc3c(c2)OCO3)C(C(=O)O)C1c1ccc(OC)cc1` (stereo not drawn) [Example 42, trans,trans-2-(4-Methoxyphenyl)-4-(1,3-benzodioxol-5-yl)-1-(N-methyl-N-(n-hexyl)aminocarbonylmethyl)-pyrrolidine-3-carboxylic acid], the “% Inhibition of ETA at 1 μM” value came out at 95.2%.

As to `CCCCS(=O)(=O)N(CCC)CCN1CC(c2ccc3c(c2)OCO3)C(C(=O)O)C1c1ccc(OC)cc1` (stereo not drawn) [Example 131, trans,trans-1-(2-(N-Propyl-N-(n-butylsulfonyl)amino)ethyl)-2-(4-methoxyphenyl)-4-(1,3-benzodioxol-5-yl)pyrrolidine-3-carboxylic acid], the “% Inhibition of ETA at 1 μM” value was determined as 89.5%.

Consider `CCCN(CCN1C[C@H](c2ccc3c(c2)OCO3)[C@@H](C(=O)O)[C@@H]1c1ccc(OC)cc1)S(=O)(=O)CC(C)C` (relative stereo) [Example 303, trans,trans-2-(4-Methoxyphenyl)-4-(1,3-benzodioxol-5-yl)-1-(2-(N-propyl-N-(2-methylpropanesulfonyl)amino)ethyl)-pyrrolidine-3-carboxylic acid], for which the “% Inhibition of ETA at 1 μM” value was found to be 87.2%.

For the compound `COCCOc1ccc(C2C(C(=O)O)C(c3ccc4c(c3)OCO4)CN2CC(=O)NN(c2ccccc2)C(C)(C)C)cc1` (stereo not drawn) [Example 561, trans,trans-2-(4-(2-Methoxyethoxy)phenyl)-4-(1,3-benzodioxol-5-yl)-1-(N-phenyl-N-t-butylhydrazinocarbonylmethyl)-pyrrolidine-3-carboxylic acid], the “% Inhibition of ETA at 1 μM” value was 0%.

For the compound `CCCCN(CCCC)C(=O)CN1CC(c2ccc(OC)cc2)C(C(=O)O)C1c1ccc(OC)cc1` (stereo not drawn) [Example 149, trans,trans-1-(N,N-Di(n-butyl)aminocarbonylmethyl)-2-(4-methoxyphenyl)-4-(4-methoxyphenyl)pyrrolidine-3-carboxylic acid], the “% Inhibition of ETA at 1 μM” value came out at 84.6%.

As to `CCCN(C)C(=O)CN1CC(c2ccc(O)cc2)C(C(=O)O)C1c1ccc(OC)cc1` (stereo not drawn) [Example 146, trans,trans-1-(N-Methyl-N-propylaminocarbonylmethyl)-2-(4-methoxyphenyl)-4-(4-hydroxyphenyl)pyrrolidine-3-carboxylic acid], the “% Inhibition of ETA at 1 μM” value is on record as 25.0%.

Consider `COc1ccc(C2C(C(=O)O)C(c3ccc4c(c3)OCO4)CN2CC(=O)N2CCCC2)cc1` (stereo not drawn) [Example 17, trans,trans-2-(4-Methoxyphenyl)-4-(1,3-benzodioxol-5-yl)-1-(pyrrolidin-1-ylcarbonylmethyl)-pyrrolidine-3-carboxylic acid], for which the “% Inhibition of ETA at 1 μM” value was 73.9%.

For the compound `CCCCN(CCCC)C(=O)CN1CC(c2cccc3occc23)C(C(=O)O)C1c1ccc(OC)cc1` (stereo not drawn) [Example 139, trans,trans-1-(N,N-Di(n-butyl)aminocarbonylmethyl)-2-(4-methoxyphenyl)-4-(4-benzofuranyl)pyrrolidine-3-carboxylic acid], the “% Inhibition of ETA at 1 μM” value is reported as 98.6%.

In the case of `CCCCCN(CCCCC)C(=O)CN1CC(c2ccc3c(c2)OCO3)C(C(=O)O)C1c1ccc(OC)cc1` (stereo not drawn) [Example 35, trans,trans-2-(4-Methoxyphenyl)-4-(1,3-benzodioxol-5-yl)-1-(N,N-dipentylaminocarbonylmethyl)-pyrrolidine-3-carboxylic acid], the “% Inhibition of ETA at 1 μM” value worked out at 91.8%.

As to `COCCN(CCOC)C(=O)CN1CC(c2ccc3c(c2)OCO3)C(C(=O)O)C1c1ccc(OC)cc1` (stereo not drawn) [Example 36, trans,trans-2-(4-Methoxyphenyl)-4-(1,3-benzodioxol-5-yl)-1-(N,N-di(2-methoxyethyl)aminocarbonylmethyl)-pyrrolidine-3-carboxylic acid], the “% Inhibition of ETA at 1 μM” value is recorded as 94.5%.
